Patent US7041785B1, “B1-bradykinin receptor antagonists and use thereof” (Université de Sherbrooke, priority 1996, dated 2006)
Non-standard residues stand in square brackets, D forms with d. Residues, ends and D or L forms follow the SMILES beside them. Tyr(3,5-I2) = N[C@@H](Cc1cc(I)c(O)c(I)c1)C(=O)O; d2Nal = N[C@H](Cc1ccc2ccccc2c1)C(=O)O; Ahx = NCCCCCC(=O)O; Sar = CNCC(=O)O

Molecular target: T1, angiotensin-converting enzyme (ACE) from rabbit lungs (Oryctolagus cuniculus, UniProt P12822)
T1 sequence (P12822 34-1310): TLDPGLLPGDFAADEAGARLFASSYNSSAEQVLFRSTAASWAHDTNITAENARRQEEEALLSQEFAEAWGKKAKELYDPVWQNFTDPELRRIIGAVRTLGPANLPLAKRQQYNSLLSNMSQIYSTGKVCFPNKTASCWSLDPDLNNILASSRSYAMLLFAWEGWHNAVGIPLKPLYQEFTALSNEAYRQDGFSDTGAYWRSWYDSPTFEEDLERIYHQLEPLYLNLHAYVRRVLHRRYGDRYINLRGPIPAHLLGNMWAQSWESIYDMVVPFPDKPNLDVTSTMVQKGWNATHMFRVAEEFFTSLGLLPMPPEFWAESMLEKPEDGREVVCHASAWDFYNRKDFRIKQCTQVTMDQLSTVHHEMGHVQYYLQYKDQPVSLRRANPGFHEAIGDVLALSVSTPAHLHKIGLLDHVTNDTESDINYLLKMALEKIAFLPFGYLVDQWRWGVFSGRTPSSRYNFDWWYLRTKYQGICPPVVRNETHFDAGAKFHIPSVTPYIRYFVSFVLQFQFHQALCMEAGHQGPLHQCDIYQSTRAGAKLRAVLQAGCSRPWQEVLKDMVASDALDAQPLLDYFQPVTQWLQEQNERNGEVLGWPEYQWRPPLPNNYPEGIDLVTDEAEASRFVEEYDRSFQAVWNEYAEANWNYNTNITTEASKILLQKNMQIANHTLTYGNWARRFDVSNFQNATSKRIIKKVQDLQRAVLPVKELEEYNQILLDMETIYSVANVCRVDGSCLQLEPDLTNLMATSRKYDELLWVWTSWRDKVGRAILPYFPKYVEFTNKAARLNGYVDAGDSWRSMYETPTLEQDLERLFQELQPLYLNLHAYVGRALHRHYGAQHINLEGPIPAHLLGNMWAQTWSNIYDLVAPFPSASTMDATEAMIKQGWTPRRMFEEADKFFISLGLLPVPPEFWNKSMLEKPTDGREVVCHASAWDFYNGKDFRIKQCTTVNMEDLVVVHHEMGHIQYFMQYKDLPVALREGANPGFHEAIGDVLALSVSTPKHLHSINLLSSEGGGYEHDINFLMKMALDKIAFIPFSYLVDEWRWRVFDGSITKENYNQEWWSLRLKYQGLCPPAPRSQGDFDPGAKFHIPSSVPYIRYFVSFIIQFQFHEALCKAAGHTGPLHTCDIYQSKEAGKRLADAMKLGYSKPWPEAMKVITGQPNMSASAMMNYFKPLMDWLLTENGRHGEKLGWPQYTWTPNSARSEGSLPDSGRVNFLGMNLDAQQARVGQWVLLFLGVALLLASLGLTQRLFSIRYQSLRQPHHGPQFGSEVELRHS
Test: Metabolic degradation by purified angiotensin-converting enzyme, HPLC analysis
Assay type: in vitro ADME
Set-up: purified angiotensin-converting enzyme (ACE) from rabbit lungs; purchased Sigma, St-Louis, Mo; host or cells: purified from rabbit lungs
Procedure: The metabolic stability of various kinin-related peptides was evaluated by incubating the peptide in the presence of purified angiotensin-converting enzyme (ACE) from rabbit lungs (purchased from Sigma, St-Louis, Mo.) dissolved in phosphate buffered saline (PBS) (50 mmol/L, pH 7.5 containing 300 mmoL/L NaCl); the final concentration of enzyme was 45 μg/mL. The experimental protocol for the measurement of ACE activity has been described elsewhere^15,16. Briefly, 200 μmol/L of peptides (40 μL) were placed in a PBS buffer and incubated for 5 min at 37EC before adding 8.5 μL of ACE (total volume of the reaction medium; 190 μL). Samples were withdrawn at 30 min intervals, immersed in boiling water for 5 min, then cooled on ice and centrifuged (5 min) before proceeding to analysis of peptides by high pressure liquid chromatography (HPLC). Results of ACE metabolism are expressed in percent of kinin degradation following the incubation (30 min) of kinin substrates with the enzyme.
Pure peptides and metabolic products were analysed by reverse-phas HPLC on a C18 μBondapak column (4.6 mm×25 cm) (Waters) of 10-μm particle size. The peptides and their fragments were eluted at the rate of 2.0 mL/min. with a linear gradient ranging from 5 to 65% of acetonitrile/TFA 0.05%/water over 20 min. at room temperature. The elution positions of these peptides were determined by following the absorbance at 214 nm. For each assay, 50 μL of the reaction medium (treated or not with ACE) were extracted and injected into the column. Concentrations of the peaks products, different from the peaks of the peptide substrate, were estimated using a computer software program (Baseline 810; Waters) that controlled also all the chromatography operations. Isolated metabolites and substrates were collected and identified by Electrospray mass spectrometry (positive mode).

With CC[C@H](C)[C@H](NC(=O)[C@@H](Cc1ccc2ccccc2c1)NC(=O)[C@H](CO)NC(=O)[C@H](Cc1ccccc1)NC(=O)CNC(=O)[C@@H]1CCCN1C(=O)[C@@H]1CCCN1C(=O)[C@H](CCCNC(=N)N)NC(=O)[C@H](CCCCN)NC(=O)CCCCCNC(=O)[C@H](Cc1cc(I)c(O)c(I)c1)NC(=O)CNC)C(=O)O [Compound 30, SarTyr(3,5-I)εAhxLys(D-βNal^7, Ile^8)desArg^9BK] (H-[Sar][Tyr(3,5-I2)][Ahx]KRPPGFS[d2Nal]I-OH; N-terminus and C-terminus assumed) the “Less susceptible to ACE proteolytic degradation, relative to Lys(Leu8)desArgBK” value was 2-5 times.
